Reference: patent US8962608B2, “Cycloalkylnitrile pyrazole carboxamides as janus kinase inhibitors” (Merck Sharp & Dohme Corp., priority 2011, dated 2015)

Assays:
[1] = biological target: JAK2 (recombinant purified GST-tagged catalytic domain) (Homo sapiens (Human), UniProt O60674); experiment: biochemical;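 note: biochemical JAK kinase assay with HTRF detection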
[2] = biological target: JAK1 (recombinant purified GST-tagged catalytic domain) (Homo sapiens (Human), UniProt P23458); experiment: biochemical;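 note: biochemical assay with HTRF read-out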
Chain of JAK1 (recombinant purified GST-tagged catalytic domain) (P23458 875-1153): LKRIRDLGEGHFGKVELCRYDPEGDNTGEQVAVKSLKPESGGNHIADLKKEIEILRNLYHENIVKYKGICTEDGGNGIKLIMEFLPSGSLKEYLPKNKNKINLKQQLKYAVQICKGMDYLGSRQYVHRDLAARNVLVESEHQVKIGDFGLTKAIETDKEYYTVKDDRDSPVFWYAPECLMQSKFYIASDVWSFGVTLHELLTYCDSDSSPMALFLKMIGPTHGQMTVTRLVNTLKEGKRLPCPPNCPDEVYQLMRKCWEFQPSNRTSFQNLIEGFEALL

Chain of JAK2 (recombinant purified GST-tagged catalytic domain) (O60674 849-1124): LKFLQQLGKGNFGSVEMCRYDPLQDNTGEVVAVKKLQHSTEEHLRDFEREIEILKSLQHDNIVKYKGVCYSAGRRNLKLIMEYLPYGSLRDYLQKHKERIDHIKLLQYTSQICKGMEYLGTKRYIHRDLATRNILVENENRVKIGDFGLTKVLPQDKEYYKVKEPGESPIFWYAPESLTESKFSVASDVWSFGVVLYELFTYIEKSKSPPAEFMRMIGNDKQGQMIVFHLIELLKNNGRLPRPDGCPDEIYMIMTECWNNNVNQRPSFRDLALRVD

Row | Compound | IC50 [1] | IC50 [2]
1 | CCNC(=O)O[C@@H]1CCC(n2cc(C(N)=O)c(Nc3ccc(F)cc3)n2)[C@@H](C#N)C1 (mixture of isomers) [Example 34-7, (1R,3S,4S and 1S,3R,4R)-4-{4-carbamoyl-3-[(4-fluorophenyl)aminol-1H-pyrazol-1-yl}-3-cyanocyclohexyl ethylcarbamate] | 9 nM | 0.85 nM
2 | N#Cc1ncc(Nc2nn([C@H]3CCCC[C@@H]3C#N)cc2C(N)=O)cc1F (single isomer, unassigned) [Example 17-79, 1-[(1R,2R or 1S,2S)-2-cyanocyclohexyl]-3-[(6-cyano-5-fluoropyridin-3-yl)amino]-1H-pyrazole-4-carboxamide] | 40 nM | 7 nM
3 | N#C[C@H]1C[C@@H](NC2(C(F)(F)F)CC2)CC[C@@H]1n1cc(C(N)=O)c(Nc2ccc(Cl)cc2)n1 (single isomer, unassigned) [Example 28-226, 3-[(4-chlorophenyl)amino]-1-[(1S,2S,4S or 1R,2R,4R)-2-cyano-4-{[1-(trifluoro-methyl)cyclopropyl]a-mino}cyclohexyl]-1H-pyrazole-4-carboxamide] | 36 nM | 5 nM
4 | N#C[C@H]1CCCC[C@@H]1n1cc(C(N)=O)c(Nc2ccc(C3CC3)nc2)n1 (single isomer, unassigned) [Example 17-80, 1-[(1R,2R or 1S,2S)-2-cyanocyclohexyl]-3-[(6-cyclopropylpyridin-3-yl)amino]-1H-pyrazole-4-carboxamide] | 26 nM | 12 nM
5 | N#C[C@H]1C[C@H](NCc2ccccc2)CC[C@@H]1n1cc(C(N)=O)c(Nc2ccnc(F)c2)n1 (single isomer, unassigned) [Example 28-123, 1-[(1S,2S,4R or 1R,2R,4S)-4-(benzylamino)-2-cyanocyclohexyl]-3-[(2-fluoropyridm-4-yl)amino]-1H-pyrazole-4-carboxamide] | 56 nM | 2 nM
6 | CC1(O)CN(C(=O)[C@H]2CC[C@H](n3cc(C(N)=O)c(Nc4ccc(Cl)cc4)n3)[C@@H](C#N)C2)C1 (single isomer, unassigned) [Example 35-30, 3-[(4-chlorophenyl)amino]-1-{(1S,2S,4S or 1R,2R,4R)-2-cyano-4-[(3-hydroxy-3-methylazetidin-1-yl)carbonyl]cyclohexyl}-1H-pyrazole-4-carboxamide] | 180 nM | 10 nM
7 | N#C[C@H]1CCCC[C@@H]1n1cc(C(N)=O)c(Nc2ccc(Br)cc2)n1 (single isomer, unassigned) [Example 17-26, 3-[(4-bromophenyl)amino]-1-[(1S,2S or 1R,2R)-2-cyanocyclohexyl]-1H-pyrazole-4-carboxamide] | 11 nM | 1 nM
8 | Cn1cc(-c2ccc(Nc3nn(C4CCCC[C@@H]4C#N)cc3C(N)=O)cn2)cn1 (mixture of isomers) [Example 21-2, 1-[(1S,2S and 1R,2R)-2-cyanocyclohexyl]-3-{[6-(1-methyl-1H-pyrazol-4-yl)pyridin-3-yl]amino)-1H-pyrazole-4-carboxamide] | 15 nM | 2 nM
9 | N#C[C@H]1CCCC[C@@H]1n1cc(C(N)=O)c(Nc2ccc(CN)cc2)n1 (racemic) [Example 17-45, 3-{[4-(aminomethyl)phenyl]amino}-1-[(1S,2S and 1R,2R)-2-cyanocyclohexyl]-1H-pyrazole-4-carboxamide] | 10 nM | 3 nM
10 | N#C[C@H]1C[C@@H](C(=O)NC2COC2)CC[C@@H]1n1cc(C(N)=O)c(Nc2ccc(Cl)cc2)n1 (single isomer, unassigned) [Example 35-7, 3-[(4-chlorophenyl)amino]-1-[(1S,2S,4S or 1R,2R,4R)-2-cyano-4-(oxetan-3-ylcarbamoyl)cyclohexyl]-1H-pyrazole-4-carboxamide] | 243 nM | 33 nM
11 | N#Cc1ccc(Nc2nn([C@H]3CCCC[C@@H]3C#N)cc2C(N)=O)cc1 (racemic) [Example 17-5, 1-[(1S,2S and 1R,2R)-2-cyanocyclohexyl]-3-[(4-cyanophenyl)amino]-1H-pyrazole-4-carboxamide] | 9 nM | 1 nM
